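Dose response: 5 concentrations. Exposure: 48 h. Format: 96-well plates. Endpoint: linear interpolation; highest concentration if not reached. GI50 marks 50% less growth.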 Activity calls are given as the source filed them. Cut-off read from the data, not from the text of the source: active = GI50 up to about 1.1 µM and inactive = higher.

We go through 9 molecules from ChEMBL document CHEMBL1201862, “PubChem BioAssay data set” (2004).

What all share (experiment): NCI-60 cell line screen, 48 h
Experiment [1] has as its system ACHN.
Experiment [2] relates to CAKI-1.
Experiment [3] has as its system COLO 205.
Experiment [4] has as its system DLD-1.
Experiment [5] relates to HOP-62.
Experiment [6] has as its system K562.
In experiment [7] the test system is M14.
Experiment [8] concerns Malme-3M.
The subject of experiment [9] is NCI-H460.
Experiment [10] deals with OVCAR-5.
Experiment [11] deals with RXF 393.
Experiment [12] deals with SF-539.
Experiment [13] has as its system U-251.
Experiment [14] deals with UACC-62.
The test system of experiment [15] is IGROV-1.
Experiment [16] has as its system HCC 2998.
In experiment [17] the test system is Hs-578T.
The subject of experiment [18] is MDA-MB-231.
In experiment [19] the test system is MDA-MB-435.
Experiment [20] concerns PC-3.

In the case of `O=C(/C=C/c1ccc[nH]1)c1ccccc1`, the GI50 in experiment [1], in [2], in [3], in experiment [4], in experiment [5] and in [6] was > 100 µM (inactive) each time. Besides, the GI50 in experiment [7], in [8], in experiment [9], in experiment [10], in [11] and in experiment [12] was > 100 µM (inactive) each time. Also, the GI50 in experiment [13] and in experiment [14] was > 100 µM (inactive) throughout.
Turning to `CCOC(=O)c1cc(/C=C/C(C)=C/C(=O)OC)oc1C`, the GI50 in experiment [1], in [2], in experiment [3], in experiment [4], in [5] and in experiment [15] was > 100 µM (inactive) in each case. Further, the GI50 in experiment [6], in experiment [7], in [8], in [9], in experiment [10] and in experiment [12] was > 100 µM (inactive) each time. In addition, the GI50 in experiment [13] and in experiment [14] was > 100 µM (inactive) in each case.
In the case of `COc1cc(/C=N\c2ccc(C(C)C)cc2)cc(OC)c1OC`, the GI50 in [1] is > 100 µM (inactive); in [2], > 100 µM (inactive); in [3], > 73.6 µM (inactive); in experiment [4] it was > 100 µM (inactive); in experiment [5], > 100 µM (inactive); in [15] it was > 100 µM (inactive). Further, the GI50 is > 50.4 µM (inactive) in experiment [6]; > 100 µM (inactive) in [7]; > 100 µM (inactive) in experiment [8]; 97.3 µM (inactive) in experiment [9]; > 100 µM (inactive) in experiment [10]; > 100 µM (inactive) in experiment [11]. Further, the GI50 in experiment [12], in experiment [13] and in experiment [14] was > 100 µM (inactive) throughout.
As for `CC(=O)O[C@@H]1C(=O)N(c2ccccc2)[C@@H]1c1cc2ccccc2c2ccccc12`, the GI50 in experiment [1] was 29.6 µM (inactive); in [2], 5.25 µM (inactive); in experiment [3], 16.7 µM (inactive); in experiment [16], 25.7 µM (inactive); in [5] it was 29.6 µM (inactive); in [17] it was 27.7 µM (inactive). Moreover, the GI50 in experiment [15] was 21.6 µM (inactive); in experiment [6], 36.6 µM (inactive); in experiment [7] it was 55.3 µM (inactive); in experiment [18], 20.3 µM (inactive); in experiment [19] it was 16.8 µM (inactive); in experiment [8], 22.9 µM (inactive). Further, the GI50 in experiment [9] is 31.4 µM (inactive); in experiment [10] it was 50 µM (inactive); in experiment [20] it was 32.9 µM (inactive); in experiment [11], 15 µM (inactive); in experiment [12], 25.4 µM (inactive); in experiment [13], 43.1 µM (inactive). Further, the GI50 in [14] is 22.8 µM (inactive).
With `Cc1ccc([S+](c2ccccc2)c2cc(C)ccc2C)cc1` (stereo not given), the GI50 in experiment [1] was 11.2 µM (inactive); in experiment [2] it was 26.7 µM (inactive); in experiment [3], 2.99 µM (inactive); in [4], 1.81 µM (inactive); in experiment [16], 1.7 µM (inactive); in experiment [5], 15.1 µM (inactive). The GI50 is 0.117 µM (active) in [15]; 0.374 µM (active) in experiment [6]; 22.2 µM (inactive) in [7]; 0.271 µM (active) in experiment [8]; 6.38 µM (inactive) in experiment [9]; 13.7 µM (inactive) in experiment [12]. Moreover, the GI50 in experiment [14] was 4.52 µM (inactive).
On to `O=C(O)CCc1nc2ccccc2[nH]1` [PROCODAZOLE], for which the GI50 in [1], in [2], in [3], in experiment [16], in [5] and in experiment [17] was > 100 µM (inactive) in each case. Also, the GI50 in experiment [15], in [6], in [7], in experiment [18], in experiment [19] and in experiment [8] was > 100 µM (inactive) in each case. The GI50 in [9], in experiment [10], in [20], in [11], in [12] and in [13] was > 100 µM (inactive) each time. For the same molecule, the GI50 in experiment [14] is > 100 µM (inactive).
With `N#C/C(=C/N1C(=O)/C(=C/c2ccc([N+](=O)[O-])cc2)SC1=S)c1nc2ccccc2s1`, the GI50 was 17.3 µM (inactive) in [1]; 30.8 µM (inactive) in experiment [2]; 14.5 µM (inactive) in experiment [3]; 14.2 µM (inactive) in experiment [16]; 0.406 µM (active) in [5]; 29.6 µM (inactive) in [17]. The GI50 is 12.3 µM (inactive) in experiment [15]; 17.5 µM (inactive) in experiment [6]; 27.8 µM (inactive) in [7]; 12.8 µM (inactive) in experiment [18]; 29.5 µM (inactive) in experiment [19]; 25.8 µM (inactive) in experiment [8]. Further, the GI50 was 14.8 µM (inactive) in experiment [9]; 29.1 µM (inactive) in [10]; 13.8 µM (inactive) in experiment [20]; 19.3 µM (inactive) in [11]; 28.9 µM (inactive) in [12]; 15.2 µM (inactive) in experiment [13]. For the same molecule, in [14], the GI50 was 4.42 µM (inactive).
Take `CCC1=CC2CN3Cn4c(c(COCc5c6n(c7ccccc57)CN5CC7C=C(CC)C5C6(C(=O)OC)C7)c5ccccc54)C(C(=O)OC)(C2)C13`: the GI50 was 68.4 µM (inactive) in experiment [1]; > 100 µM (inactive) in [2]; > 100 µM (inactive) in [3]; > 100 µM (inactive) in experiment [4]; > 100 µM (inactive) in [5]; > 100 µM (inactive) in experiment [15]. Also, the GI50 in experiment [6], in experiment [7], in experiment [8], in experiment [9], in experiment [11] and in experiment [13] was > 100 µM (inactive) throughout. Besides, the GI50 in experiment [14] was > 100 µM (inactive).
Regarding `CCn1sc2ccccc2c1=O`, the GI50 in experiment [1] is 7.62 µM (inactive); in [2], 3.43 µM (inactive); in experiment [3] it was 9.55 µM (inactive); in experiment [16], 17.4 µM (inactive); in experiment [5], 14.7 µM (inactive); in experiment [17] it was 16.4 µM (inactive). For the same molecule, the GI50 was 6.73 µM (inactive) in experiment [15]; 4.58 µM (inactive) in [6]; 4.97 µM (inactive) in experiment [7]; 9.57 µM (inactive) in experiment [18]; 1.99 µM (inactive) in experiment [19]; 15.8 µM (inactive) in experiment [8]. Moreover, the GI50 in experiment [9] was 32.1 µM (inactive); in experiment [10], 9.1 µM (inactive); in [20], 14.3 µM (inactive); in experiment [11], 4.81 µM (inactive); in experiment [12], 13.5 µM (inactive); in experiment [13], 6 µM (inactive). For the same molecule, the GI50 in experiment [14] is 13.9 µM (inactive).
